Values joined by “and” are separate entries in the source; they are usually repeats but may differ in a detail not shown here. Equal entries are not always repeated. Inconclusive results are not listed.
Test system: BDF1 mice, colon carcinoma 38 sc, T/C %
Test: NCI In Vivo Anticancer Drug Screen. Data for tumor model Colon Carcinoma 38 (subcutaneous) in B6D2F1 (BDF1) mice
In short: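 Compound antitumor activity was assessed in mice carrying transplantable tumors. Survival or tumor size was recorded, and each value is the treated-group measurement divided by that of the vehicle-treated control group.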

Structure (SMILES): Cc1[nH]c(=O)[nH]c(=O)c1N(CCF)CCCl
- T/C (endpoint: median tumor weight (est.), dose: 16.0 mg/kg/injection, schedule: Q07DX002 (ip), vehicle: Klucel (hydroxypropylcellulose) (HPC), higher = larger tumour): 69 % of control and 71 % of control
- T/C (endpoint: median tumor weight (est.), dose: 32.0 mg/kg/injection, schedule: Q07DX002 (ip), vehicle: Klucel (hydroxypropylcellulose) (HPC), higher = larger tumour): 67 % of control and 79 % of control and 82 % of control
- T/C (endpoint: median tumor weight (est.), dose: 64.0 mg/kg/injection, schedule: Q07DX002 (ip), vehicle: Klucel (hydroxypropylcellulose) (HPC), higher = larger tumour): 38 % of control
- T/C (endpoint: median tumor weight (est.), dose: 64.0 mg/kg/injection, schedule: Q07DX003 (ip), vehicle: Klucel (hydroxypropylcellulose) (HPC), higher = larger tumour): 21 % of control and 28 % of control

Structure (SMILES): O=C(Nc1ccccc1)c1c(O)[nH]c(=S)[nH]c1=O
- T/C (endpoint: median tumor weight (est.), dose: 112.0 mg/kg/injection, schedule: Q07DX002 (ip), vehicle: saline with Tween-80, higher = larger tumour): 68 % of control
- T/C (endpoint: median tumor weight (est.), dose: 225.0 mg/kg/injection, schedule: Q07DX002 (ip), vehicle: saline with Tween-80, higher = larger tumour): 51 % of control

Structure (SMILES): OCCOCC(F)(F)F
- T/C (endpoint: median tumor weight (est.), dose: 25.0 mg/kg/injection, schedule: Q07DX002 (ip), vehicle: saline with Tween-80, higher = larger tumour): 86 % of control
- T/C (endpoint: median tumor weight (est.), dose: 200.0 mg/kg/injection, schedule: Q07DX002 (ip), vehicle: saline with Tween-80, higher = larger tumour): 120 % of control and 104 % of control
- T/C (endpoint: median tumor weight (est.), dose: 400.0 mg/kg/injection, schedule: Q07DX002 (ip), vehicle: saline with Tween-80, higher = larger tumour): 116 % of control and 102 % of control

Structure (SMILES): C1CCC2[N-]CC3CCCCC3[N-]CC3CCCCC3[N-]CC3CCCCC3[N-]CC2C1.[Cu] (stereo unspecified)
- T/C (endpoint: median tumor weight (est.), dose: 1.56 mg/kg/injection, schedule: Q07DX002 (ip), vehicle: Klucel (hydroxypropylcellulose) (HPC), higher = larger tumour): 93 % of control
- T/C (endpoint: median tumor weight (est.), dose: 1.56 mg/kg/injection, schedule: Q07DX003 (ip), vehicle: Klucel (hydroxypropylcellulose) (HPC), higher = larger tumour): 97 % of control
- T/C (endpoint: median tumor weight (est.), dose: 3.13 mg/kg/injection, schedule: Q07DX002 (ip), vehicle: Klucel (hydroxypropylcellulose) (HPC), higher = larger tumour): 81 % of control
- T/C (endpoint: median tumor weight (est.), dose: 6.25 mg/kg/injection, schedule: Q07DX002 (ip), vehicle: Klucel (hydroxypropylcellulose) (HPC), higher = larger tumour): 91 % of control
- T/C (endpoint: median tumor weight (est.), dose: 6.25 mg/kg/injection, schedule: Q07DX003 (ip), vehicle: Klucel (hydroxypropylcellulose) (HPC), higher = larger tumour): 100 % of control
- T/C (endpoint: median tumor weight (est.), dose: 12.5 mg/kg/injection, schedule: Q07DX002 (ip), vehicle: Klucel (hydroxypropylcellulose) (HPC), higher = larger tumour): 97 % of control
- T/C (endpoint: median tumor weight (est.), dose: 12.5 mg/kg/injection, schedule: Q07DX003 (ip), vehicle: Klucel (hydroxypropylcellulose) (HPC), higher = larger tumour): 95 % of control

Structure (SMILES): Nc1cc(Cl)c2[nH]cnc2n1
- T/C (endpoint: median tumor weight (est.), dose: 12.5 mg/kg/injection, schedule: Q07DX002 (ip), vehicle: water, higher = larger tumour): 86 % of control
- T/C (endpoint: median tumor weight (est.), dose: 25.0 mg/kg/injection, schedule: Q07DX002 (ip), vehicle: water, higher = larger tumour): 119 % of control
- T/C (endpoint: median tumor weight (est.), dose: 50.0 mg/kg/injection, schedule: Q07DX002 (ip), vehicle: distilled water + Tween-80, higher = larger tumour): 99 % of control
- T/C (endpoint: median tumor weight (est.), dose: 50.0 mg/kg/injection, schedule: Q07DX002 (ip), vehicle: water, higher = larger tumour): 82 % of control
- T/C (endpoint: median tumor weight (est.), dose: 100.0 mg/kg/injection, schedule: Q07DX002 (ip), vehicle: distilled water + Tween-80, higher = larger tumour): 76 % of control
- T/C (endpoint: median tumor weight (est.), dose: 100.0 mg/kg/injection, schedule: Q07DX002 (ip), vehicle: water, higher = larger tumour): 101 % of control
- T/C (endpoint: median tumor weight (est.), dose: 200.0 mg/kg/injection, schedule: Q07DX002 (ip), vehicle: distilled water + Tween-80, higher = larger tumour): 108 % of control
- T/C (endpoint: median tumor weight (est.), dose: 200.0 mg/kg/injection, schedule: Q07DX002 (ip), vehicle: water, higher = larger tumour): 81 % of control
- T/C (endpoint: median tumor weight (est.), dose: 400.0 mg/kg/injection, schedule: Q07DX002 (ip), vehicle: water, higher = larger tumour): 81 % of control

Structure (SMILES): [Cl][Pt+2][Cl].[NH-]C1CCC1.[NH2-]
- T/C (endpoint: median tumor weight (est.), dose: 1.5 mg/kg/injection, schedule: Q07DX002 (ip), vehicle: saline, higher = larger tumour): 95 % of control
- T/C (endpoint: median tumor weight (est.), dose: 3.0 mg/kg/injection, schedule: Q07DX002 (ip), vehicle: saline, higher = larger tumour): 64 % of control
- T/C (endpoint: median tumor weight (est.), dose: 12.0 mg/kg/injection, schedule: Q07DX002 (ip), vehicle: saline, higher = larger tumour): 43 % of control and 49 % of control
- T/C (endpoint: median tumor weight (est.), dose: 24.0 mg/kg/injection, schedule: Q07DX002 (ip), vehicle: saline, higher = larger tumour): 13 % of control

Structure (SMILES): O=C1c2ccccc2C(=O)c2c(NCCNCCO)ccc(O)c21
- T/C (endpoint: median tumor weight (est.), dose: 5.0 mg/kg/injection, schedule: Q07DX002 (ip), vehicle: suspension in saline, higher = larger tumour): 79 % of control and 95 % of control
- T/C (endpoint: median tumor weight (est.), dose: 10.0 mg/kg/injection, schedule: Q07DX002 (ip), vehicle: suspension in saline, higher = larger tumour): 94 % of control and 99 % of control
- T/C (endpoint: median tumor weight (est.), dose: 40.0 mg/kg/injection, schedule: Q07DX002 (ip), vehicle: suspension in saline, higher = larger tumour): 90 % of control and 96 % of control and 106 % of control
- T/C (endpoint: median tumor weight (est.), dose: 320.0 mg/kg/injection, schedule: Q07DX002 (ip), vehicle: suspension in saline, higher = larger tumour): 74 % of control

Structure (SMILES): COc1cccc2c1C(=O)c1c(O)c3c(c(O)c1C2=O)C[C@@](O)(C(C)=O)C[C@@H]3OC1CC(N(C)C)C(O)C(C)O1 (stereo partly specified)
- T/C (endpoint: median survival time, dose: 6.4 mg/kg/injection, schedule: Q07DX002 (iv), vehicle: saline, higher = longer survival): 96 % of control
- T/C (endpoint: median survival time, dose: 10.0 mg/kg/injection, schedule: Q07DX002 (iv), vehicle: saline, higher = longer survival): 105 % of control
- T/C (endpoint: median tumor weight (est.), dose: 2.25 mg/kg/injection, schedule: Q07DX002 (ip), vehicle: saline, higher = larger tumour): 75 % of control and 89 % of control

From PubChem BioAssay AID212 (DTP/NCI, 2004)
